The source of these data is patent US5399711A, “Thiomarinol compounds” (Sankyo Company, Limited, priority 1992, dated 1995).

Each structure is given as a SMILES string. Values after ≈ are worked out from the molar mass of the structure shown.

The subject of data set [1] is Mycoplasma hyorhinis BTS 7. Description: Antimycoplasmal MIC (Test Example 2). To be noted: BTS7, 120 h, Chanock medium, 20% horse serum, 0.005 ml of 10^5 CFU/ml, 37° C., 5 days. Format: cell-based. Here is the method: (§1) Following the same procedure as for Test Example 1, the activity of thiomarinol, thiomarinol B, thiomarinol C and pseudomonic acid A (identified as "A", "B", "C" and "P", respectively) was assayed against various species of mycoplasma. Inoculum: 0.005 ml of 10^5 CFU/ml Thiomarinol B, Thiomarinol C and Pseudomonic acid A were all assayed on Chanock medium [prepared as described in P.N.A.S., 48, 41-49 (1962) and supplemented with 20% horse serum] for all microorganisms; Culture conditions: 37° C., 5 days, slightly aerobic (BBL gas pack method [cultivation in disposable CO2 generator from Becton Dickinson Microbiology Systems, Cockeysville, Md. 2103 U.S.A.])

In data set [2] the test system is Morcranella morganii 1510. Description: MIC, agar medium dilution method (Test Example 1). Format: cell-based. To be noted: nutrient agar. Here is the method: (§2) The minimum inhibitory concentration (MIC) of thiomarinol, thiomarinol B, thiomarinol C and pseudomonic acid A (identified as "A", "B", "C" and "P", respectively) given as μg/ml, against gram-positive and gram-negative bacteria was determined by the agar medium dilution method, using a nutrient agar medium (Product of Eiken Chemical Co., Ltd.).

The subject of data set [3] is Escherichia coli NIHJ. The experiment in a line: MIC, agar medium dilution method (Test Example 1). The settings on record: nutrient agar. Format: cell-based. Here is the method:
as §2

Data set [4] concerns Staphylococcus aureus 56R. Description: MIC, agar medium dilution method (Test Example 1). To be noted: nutrient agar. Format: cell-based. Here is the method:
as §2

Data set [5] has as its system Salmonella enteritidis. The experiment in a line: MIC, agar medium dilution method (Test Example 1). Format: cell-based. To be noted: Salmonella enterica, nutrient agar. Here is the method:
as §2

The test system of data set [6] is Enterobacter cloacae 963. Description: MIC, agar medium dilution method (Test Example 1). To be noted: nutrient agar. Format: cell-based. Here is the method: as §2
For data set [7], the system named is Staphylococcus aureus 209P. Description: MIC, agar medium dilution method (Test Example 1). Format: cell-based. The settings on record: nutrient agar. Here is the method: as §2
In data set [8] the test system is Staphylococcus aureus 535 (MRSA). Description: MIC, agar medium dilution method (Test Example 1). To be noted: nutrient agar. Format: cell-based. Here is the method:
as §2

The subject of data set [9] is Escherichia coli 609. The experiment in a line: MIC, agar medium dilution method (Test Example 1). The settings on record: nutrient agar. Format: cell-based. Here is the method:
as §2

Data set [10] relates to Pseudomonas aerucrinosa No. 7. The experiment in a line: MIC, agar medium dilution method (Test Example 1). Format: cell-based. The settings on record: nutrient agar. Here is the method: as §2
For data set [11], the system named is Klebsiella pneumoniae 806. Description: MIC, agar medium dilution method (Test Example 1). Format: cell-based. The settings on record: nutrient agar. Here is the method: as §2
For data set [12], the system named is Enterococcus faecalis 681. Description: MIC, agar medium dilution method (Test Example 1). Format: cell-based. To be noted: nutrient agar. Here is the method:
as §2

Data set [13] concerns Pseudomonas aerucrinosa 1001. Description: MIC, agar medium dilution method (Test Example 1). To be noted: nutrient agar. Format: cell-based. Here is the method: as §2
For data set [14], the system named is Pseudomonas aeruginosa 3719. The experiment in a line: MIC, agar medium dilution method (Test Example 1). To be noted: nutrient agar. Format: cell-based. Here is the method:
as §2

Data set [15] concerns Serratia marcescens 1184. Description: MIC, agar medium dilution method (Test Example 1). The settings on record: nutrient agar. Format: cell-based. Here is the method: as §2
For data set [16], the system named is Proteus vulgaris 1420. The experiment in a line: MIC, agar medium dilution method (Test Example 1). Format: cell-based. The settings on record: nutrient agar. Here is the method:
as §2

For data set [17], the system named is Klebsiella pneumoniae 846 (R). Description: MIC, agar medium dilution method (Test Example 1). The settings on record: nutrient agar. Format: cell-based. Here is the method: as §2
Data set [18] relates to gram-positive and gram-negative bacteria. The experiment in a line: Antibacterial activity, overall comparison. Format: cell-based. The settings on record: for antibacterial activity compared with pseudomonic acid A: general statement. Here is the method:
as §2

The nature of data set [19]: Solubility. Format: physicochemical. The settings on record: for solubility (insoluble in): hexane and water; for solubility (soluble in): organic solvents.
The subject of data set [20] is mycoplasma. The experiment in a line: Anti-mycoplasmal activity, overall comparison. Format: cell-based. The settings on record: compared with thiomarinol and pseudomonic acid A; Table 2. Here is the method: Following the same procedure as for Test Example 1, the activity of thiomarinol, thiomarinol B, thiomarinol C and pseudomonic acid A (identified as "A", "B", "C" and "P", respectively) was assayed against various species of mycoplasma.

The test system of data set [21] is bacteria. The settings on record: compared with the thiomarinol derivatives or with pseudomonic acid; cited from earlier work.
Data set [22] deals with tumor. To be noted: Japanese Patent Kokai Application Number Sho 63-27484; cited from earlier work.
In data set [23] the test system is Mycoplasma hyosynoviae S-16. Description: Antimycoplasmal MIC (Test Example 2). To be noted: S16, 120 h, Mucin PPLO agar medium, 15% horse serum, 0.005 ml of 10^5 CFU/ml, 37° C., 5 days. Format: cell-based. Here is the method:
as §1, with “microorganisms; Thiomarinol was assayed on the following media: M. hyosynoviae: Mucin PPLO* agar medium (15% horse serum supplemented) |*PPLO ( -- Pleuro -- Pneumonia- -- Like -- Organism) |PPLO Broth without CV (Difco) | 21 g |Mucin bacteriological (Difco) | 5 g |Distilled water 800 ml |Agar Noble (Difco) 12 g |Equine serum 150 ml |25% Fresh yeast extract | 50 ml” for “microorganisms;”

In the case of `C/C(=C\C(=O)OCCCCCCCC(=O)Nc1c2sscc-2[nH]c1=O)CC1OCC(C/C=C/C(C)C(C)O)C(O)C1O` (stereo not drawn) [thiomarinol C], the MIC (commonly the least concentration at which growth counts as inhibited) in data set [1] is 1.56 µg/mL (≈ 2.5 µM); in data set [2], 12.5 µg/mL (≈ 20 µM); in [3] it was 3.1 µg/mL (≈ 4.96 µM); in [4] it was at most 0.01 µg/mL; in data set [5], 1.5 µg/mL (≈ 2.4 µM); in data set [6], 3.1 µg/mL (≈ 4.96 µM). The MIC in data set [7] was at most 0.01 µg/mL; in [8] it was at most 0.01 µg/mL; in data set [9] it was 1.5 µg/mL (≈ 2.4 µM); in data set [10], 0.8 µg/mL (≈ 1.28 µM); in data set [11], 1.5 µg/mL (≈ 2.4 µM); in data set [12], 0.8 µg/mL (≈ 1.28 µM). In addition, the MIC in data set [13] was 0.8 µg/mL (≈ 1.28 µM); in data set [14] it was 0.4 µg/mL (≈ 0.64 µM); in [15], 6.2 µg/mL (≈ 9.92 µM); in [16], 0.2 µg/mL (≈ 0.32 µM); in [17], 0.8 µg/mL (≈ 1.28 µM). The antibacterial activity entry in [18] (compared with thiomarinol and pseudomonic acid A, Table 1) is “at least as good as those of thiomarinol and are, in general, significantly better than those of pseudomonic acid A”. Besides, in [18], the “antibacterial activity compared with pseudomonic acid A” value is “significantly more potent antibacterial activity than does pseudomonic acid A”. The “solubility (insoluble in)” value in [19] is “Insoluble in hexane and water”. Further, the “solubility (soluble in)” value in data set [19] is “Soluble in alcohols such as methanol, ethanol, propanol and butanol, as well as in dimethyl sulfoxide, dimethylformamide, chloroform, ethyl acetate, acetone and diethyl ether”. In addition, the anti-mycoplasmal activity entry in data set [20] is “at least as good as those of thiomarinol and are, in general, significantly better than those of pseudomonic acid A”.
For the compound `CC(=CC(=O)OCCCCCCCCC(=O)O)CC1OCC(CC=CC(C)C(C)O)C(O)C1O` (stereo not drawn) [pseudomonic acid C], the “antibacterial activity of prior art compounds” value in data set [21] is listed as “weaker antibacterial activities than do the thiomarinol derivatives of the present invention”.
For the compound `O=C1CCC(=O)N(O)CCCCCNC(=O)CCC(=O)N(O)CCCCCN1` [bisucaberin], the antitumor activity result in data set [22] is recorded as “exhibit antitumor activity”.
In the case of `C/C(=C\C(=O)OCCCCCCCCC(=O)O)C[C@@H]1OC[C@](O)(C[C@@H]2O[C@H]2[C@@H](C)[C@H](C)O)[C@@H](O)[C@H]1O` [pseudomonic acid B], in data set [21], the “antibacterial activity of prior art compounds” value is “weaker antibacterial activities than do the thiomarinol derivatives of the present invention”.
Take `CC(=CC(=O)OCCCCCCCCC(=O)O)CC1OCC(CC2OC2C(C)C(C)O)C(O)C1O` (stereo not drawn) [pseudomonic acid A]: the MIC was 0.39 µg/mL (≈ 0.779 µM) in [1]; over 100 µg/mL in data set [2]; 100 µg/mL (≈ 200 µM) in data set [3]; 0.1 µg/mL (≈ 0.2 µM) in [4]; 50 µg/mL (≈ 99.9 µM) in [5]; over 100 µg/mL in data set [6]. In addition, the MIC in [7] is 0.05 µg/mL (≈ 0.0999 µM); in data set [8], 0.2 µg/mL (≈ 0.399 µM); in data set [9], 100 µg/mL (≈ 200 µM); in data set [10] it was over 100 µg/mL; in [11], 100 µg/mL (≈ 200 µM); in data set [12], 25 µg/mL (≈ 49.9 µM). Further, the MIC in data set [13] was over 100 µg/mL; in data set [14] it was over 100 µg/mL; in [15], over 100 µg/mL; in data set [16], 0.4 µg/mL (≈ 0.799 µM); in data set [17] it was 100 µg/mL (≈ 200 µM). Moreover, the “antibacterial activity of prior art compounds” value in data set [21] is “weaker antibacterial activities than do the thiomarinol derivatives of the present invention”.
On to `C/C(=C\C(=O)OCCCCCCCC(=O)Nc1c2sscc-2[nH]c1=O)C(O)C1OCC(C/C=C/C(C)C(C)O)C(O)C1O` (stereo not drawn) [thiomarinol], for which the MIC in [23] is 0.025 µg/mL (≈ 0.039 µM); in [2], 6.2 µg/mL (≈ 9.68 µM); in [3], 0.8 µg/mL (≈ 1.25 µM); in data set [4], at most 0.01 µg/mL; in data set [5] it was 0.4 µg/mL (≈ 0.624 µM); in data set [6], 1.5 µg/mL (≈ 2.34 µM). For the same compound, the MIC was at most 0.01 µg/mL in data set [7]; at most 0.01 µg/mL in data set [8]; 0.8 µg/mL (≈ 1.25 µM) in data set [9]; 0.4 µg/mL (≈ 0.624 µM) in [10]; 0.8 µg/mL (≈ 1.25 µM) in [11]; 0.02 µg/mL (≈ 0.0312 µM) in [12]. Also, the MIC in [13] was 0.2 µg/mL (≈ 0.312 µM); in data set [15], 3.1 µg/mL (≈ 4.84 µM); in [16], 0.05 µg/mL (≈ 0.078 µM); in [17] it was 0.2 µg/mL (≈ 0.312 µM). For the same compound, in data set [18], the “antibacterial activity compared with pseudomonic acid A” value is on record as “significantly more potent antibacterial activity than does pseudomonic acid A”. Besides, in data set [19], the “solubility (insoluble in)” value was “insoluble in hexane and water”. The “solubility (soluble in)” value in data set [19] was “Soluble in alcohols such as methanol, ethanol, propanol and butanol; and soluble in dimethyl sulfoxide, dimethylformamide, chloroform, ethyl acetate, acetone and diethyl ether”.
Turning to `CC(=CC(=O)OCCCCC=CCCC(=O)O)CC1OCC(CC2OC2C(C)C(C)O)C(O)C1O` (stereo not drawn) [pseudomonic acid D], the “antibacterial activity of prior art compounds” value in [21] is recorded as “weaker antibacterial activities than do the thiomarinol derivatives of the present invention”.
